Experiments:
Assay type in all cases: in vivo
[1] = system: Spodoptera littoralis (Egyptian cotton leaf worm); test: Example B1: activity against Spodoptera littoralis, sprayed cotton leaf discs; details: foliar, 72 h, application rate 200 ppm, L1 larvae, 3 days after infestation, read-out: control of Spodoptera littoralis (at least one of mortality, anti-feedant effect, growth inhibition)
Experimental: Example B1: Activity Against Spodoptera littoralis (Egyptian Cotton Leaf Worm)
Cotton leaf discs were placed on agar in 24-well microtiter plates and sprayed with aqueous test solutions prepared from 10′000 ppm DMSO stock solutions. After drying the leaf discs were infested with five L1 larvae. The samples were assessed for mortality, anti-feedant effect, and growth inhibition in comparison to untreated samples 3 days after infestation. Control of Spodoptera littoralis by a test sample is when at least one of mortality, anti-feedant effect, and growth inhibition is higher than the untreated sample.

[2] = system: Spodoptera littoralis (Egyptian cotton leaf worm); test: Example B2: activity against Spodoptera littoralis, systemic via lettuce grown on treated agar; details: 144 h, test rate 12.5 ppm, in agar, uptake by lettuce roots, Spodoptera eggs, 6 days after infestation, read-out: effect in at least one of the three categories (mortality, anti-feedancy, or growth inhibition)
From the text: Example B2: Activity Against Spodoptera littoralis (Egyptian Cotton Leaf Worm)
Test compounds were applied by pipette from 10′000 ppm DMSO stock solutions into 24-well plates and mixed with agar. Lettuce seeds were placed on the agar and the multi well plate was closed by another plate which contains also agar. After 7 days the roots have absorbed the compound and the lettuce has grown into the lid plate. The lettuce leafs were now cut off into the lid plate. Spodoptera eggs were pipetted through a plastic stencil on a humid gel blotting paper and the plate closed with it.
The samples were assessed for mortality, anti-feedant effect and growth inhibition in comparison to untreated samples 6 days after infestation.

[3] = system: Myzus persicae (green peach aphid); test: Example B5: activity against Myzus persicae, sprayed sunflower leaf discs; details: foliar, 144 h, application rate 200 ppm, aphid population of mixed ages, 6 days after infestation
Experimental: Example B5: Activity Against Myzus persicae (Green Peach Aphid)
Sunflower leaf discs were placed on agar in a 24-well microtiter plate and sprayed with aqueous test solutions prepared from 10′000 ppm DMSO stock solutions. After drying, the leaf discs were infested with an aphid population of mixed ages. The samples were assessed for mortality 6 days after infestation.

[4] = system: Diabrotica balteata (corn root worm); test: Example B4: activity against Diabrotica balteata, sprayed maize sprouts; details: 96 h, application rate 200 ppm, L2 larvae, 4 days after infestation, read-out: effect in at least one of the two categories (mortality or growth inhibition)
Experimental: Example B4: Activity Against Diabrotica Balteata (Corn Root Worm)
Maize sprouts, placed on an agar layer in 24-well microtiter plates were treated with aqueous test solutions prepared from 10′000 ppm DMSO stock solutions by spraying. After drying, the plates were infested with L2 larvae (6 to 10 per well). The samples were assessed for mortality and growth inhibition in comparison to untreated samples 4 days after infestation.

[5] = system: Plutella xylostella (diamond back moth); test: Example B3: activity against Plutella xylostella, treated artificial diet; details: 120 h, application rate 200 ppm, L2 larvae, 5 days after infestation, read-out: effect in at least one of the two categories (mortality or growth inhibition)
Experimental: Example B3: Activity Against Plutella xylostella (Diamond Back Moth)
24-well microtiter plates with artificial diet were treated with aqueous test solutions prepared from 10′000 ppm DMSO stock solutions by pipetting. After drying, the plates were infested with L2 larvae (10 to 15 per well). The samples were assessed for mortality and growth inhibition in comparison to untreated samples 5 days after infestation.

[6] = system: Frankliniella occidentalis (western flower thrips); test: Example B7: activity against Frankliniella occidentalis, sprayed sunflower leaf discs; details: foliar, 168 h, application rate 200 ppm, population of mixed ages, 7 days after infestation
Experimental: Example B7: Activity Against Frankliniella occidentalis (Western Flower Thrips)
Sunflower leaf discs were placed on agar in 24-well microtiter plates and sprayed with aqueous test solutions prepared from […] stock solutions. After drying the leaf discs were infested with a Frankliniella population of mixed ages. The samples were assessed for mortality 7 days after infestation.

[7] = system: Aedes aegypti (yellow fever mosquito); test: Example B11: activity against Aedes aegypti, dry deposits in tissue culture plates; details: 200 ppm in ethanol, dry deposit, adult females, after 48 h and/or 24 h
Experimental: Example B11: Activity Against Aedes Aegypti (Yellow Fever Mosquito)
Test solutions, at an application rate of 200 ppm in ethanol, were applied to 12-well tissue culture plates. Once the deposits were dry, five, two to five days old adult female Aedes aegypti were added to each well, and sustained with a 10% sucrose solution in a cotton wool plug. Assessment of knockdown was made one hour after introduction, and mortality was assessed at 24 and 48 hours after introduction.

[8] = system: Tetranychus urticae (two-spotted spider mite); test: Example B10: activity against Tetranychus urticae, sprayed bean leaf discs; details: foliar, 192 h, application rate 200 ppm, mixed population (mobile stages), 8 days after infestation
Experimental: Example B10: Activity Against Tetranychus urticae (Two-Spotted Spider Mite)
Bean leaf discs on agar in 24-well microtiter plates were sprayed with aqueous test solutions prepared from 10′000 ppm DMSO stock solutions. After drying the leaf discs were infested with a mite population of mixed ages. The samples were assessed for mortality on mixed population (mobile stages) 8 days after infestation.

CCS(=O)(=O)c1cc(-c2ccc(F)cc2)cnc1-c1ncc(-c2ccc(C(F)(F)F)nc2)n1C [Compound P3, 3-ethylsulfonyl-5-(4-fluorophenyl)-2-[1-methyl-5-[6-(trifluoromethyl)-3-pyridyl]imidazol-2-yl]pyridine]
≥ 80%: mortality at 200 ppm [1] | percent control (mortality, anti-feedancy or growth inhibition) at 12.5 ppm [2] | mortality at 200 ppm [3] | percent effect (mortality or growth inhibition) at 200 ppm [4] | percent effect (mortality or growth inhibition) at 200 ppm [5] | mortality at 200 ppm [6] | pest or weed control at 200 ppm [7] | mortality at 200 ppm [8]

— patent US10512265B2, “Pesticidally active heterocyclic derivatives with sulphur containing substituents” (Syngenta Participations AG, priority 2015, dated 2019)
